From article PMC10534582, “A Pharmacokinetic Study of Sixteen Major Bioactive Components of Jinshui-Huanxian Granules in Pulmonary Fibrosis Model and Control Rats Using Orbitrap Fusion Mass Spectrometry” (Molecules, 2023)
Where two headings read alike, the source gives them in different places. Blank lines part the entries; values can stand above or below the compound they belong to.

What was measured:
[1] = Pharmacokinetics of JHG components in pulmonary fibrosis (PF) model rats after intragastric administration of JHGs (plasma, Orbitrap Fusion MS); format: in vivo, Sprague Dawley (SD) rats; details: for Cmax, PF model group compared with the control group: medium dose selected for comparison; for pharmacokinetic process (versus dosage): low, medium, high doses of JHGs
Method: (§1) Healthy male Sprague Dawley (SD) rats of SPF grade (240 ± 20 g) were purchased from Sipeifu (Beijing, China) Biotechnology Co., Ltd. (Beijing, China), Certificate of Conformity No.: SCYK (Beijing, China) 2019-0015, Animal Quality Certificate No.: 110324220102348616. They were housed in the Animal Center of Henan University of Traditional Chinese Medicine, which passed the ethical audit, ethics number: DWLL202208003, breeding Co. 24 °C, relative humidity 50 ± 2%. The animals fasted for 12 h before the experiment and drank water freely. All feeding and experimental studies on experimental animals were in accordance with the regulations on the Management of Experimental Animals in Henan Province.
The PF model in rats was replicated by reference to the conclusion tracheal intubation method in the literature. After the rats were anesthetized, bleomycin (BLM) (5 mg/kg) was used as an induction agent and followed the tracheal intubation method. BLM solution was aspirated with a 1 mL syringe and injected into the indwelling syringe. A total of 0.3 mL of air was rapidly pushed into the syringe, the rats were immediately stroked upright so that the BLM solution was evenly distributed in both lungs. BLM was given on day 0 for modeling, then gavage was taken after day 28, with fasting without water for 12 h before sampling. The histopathological examination was performed to verify the construction of the PF model. The rats were anesthetized by the abdominal cavity, then the lung tissues were violently shocked by opening the chest, and the right lower lobe of the lung was taken and fixed in 4% formaldehyde solution, then dehydrated by sucrose gradient, paraffin-embedded, and sectioned. H&E and Masson staining were performed to observe the degree of alveolitis of lung tissue and the degree of pulmonary fibrosis, respectively. The inflammation and fibrosis of lung tissues was observed under the light microscope.
(§2) Twenty-four healthy male SD rats or PF model rats, weighing 240 ± 20 g, fasted for 12 h before the experiment and drank water freely. Both kinds of rats were randomly divided into four groups. Blank group: equal dose of water by intragastric, low dose; administration group: rats were given the equivalent human dose of JHGs by intragastric, i.e., 10.8 g of raw drug/kg/d (5.70 g/kg/d); medium-dose administration group: 2 times the human equivalent dose of JHGs by intragastric, i.e., 21.6 g of raw drug/kg/d (11.41 g/kg/d); high-dose administration group: 4 times the human equivalent dose of JHG, i.e., 43.2 g of raw drug/kg/d (22.81 g/kg/d). Blood was collected from the tail vein before and 0.083, 0.25, 0.5, 0.75, 1, 1.5, 2, 3, 4, 6, 8, 12, 18, and 24 h after dosing, respectively. A total of 0.5 mL was placed in a heparin sodium centrifuge tube. Whole blood was left for 30 min and then centrifuged in a low-temperature freezing centrifuge (4 °C, 3000 r/min) for 15 min. The upper layer of plasma was collected and stored in a refrigerator at −80 °C.
(§3) We added 50 μL of internal standard solution and 800 μL of methanol, shook for 15 min, then centrifuged at 12,000 r/min for 10 min, took the supernatant, dried in a centrifuge concentrator, added 50 μL of the initial mobile phase to the residue, dissolved, centrifuged, then separated the upper layer of the solution used as the test solution. A total of 5 μL test solution was taken into the sample for analysis. For each compound with a certain dosage, the same procedure is repeated six times in parallel. The concentration in plasma was calculated by the internal standard method.
Accucore C18 (100 mm × 2.1 mm, 2.6 μm) column at 25 °C, the mobile phase was methanol (A)-0.1% formic acid aqueous solution (B). The gradient elution program was 0–4 min (65% B-40% B), 4–5 min (40% B-40% B), 5–6 min (40% B-28% B), and 6–7 min (28% B-19% B), 7–7.5 min (19% B-10% B), 7.5–11 min (10% B-0% B), the flow rate was 0.2 mL/min, and the injection volume was 5 μL. […]

[2] = Pharmacokinetics of JHG components in control rats after intragastric administration of JHGs (plasma, Orbitrap Fusion MS); format: in vivo, Sprague Dawley (SD) rats; details: for pharmacokinetic process (Cmax and AUCs versus dosage): low, medium, high doses of JHGs; for Tmax / AUC(0-inf) / AUC(0-t) / half-life / MRT last / MRT inf / Cmax: male, rat, plasma, po; for MRT last: read-out: MRT(0-t); for MRT inf: read-out: MRT(0-∞); for Cmax: intragastric JHGs
Method: as §1, §2, §3
Accucore C18 (100 mm × 2.1 mm, 2.6 μm) column at 25 °C, the mobile phase was methanol (A)-0.1% formic acid aqueous solution (B). The gradient elution program was 0–4 min (65% B-40% B), 4–5 min (40% B-40% B), 5–6 min (40% B-28% B), and 6–7 min (28% B-19% B), 7–7.5 min (19% B-10% B), 7.5–11 min (10% B-0% B), the flow rate was 0.2 mL/min, and the injection volume was 5 μL.
The ion source was an electrospray ionization source (ESI). Nitrogen acted as a carrier gas. The sheath gas pressure was 35 Arb. The auxiliary gas pressure was 7 Arb. The spray voltage was 3.50 kv(+), 2.50 kv(-). The ion transport tube temperature was regulated at 300 °C. Gasification temperature was 275 °C. The resolution was 50,000. The scanning mode was set as SIM mode. The optimized parameters obtained are in Table 5.
Under the established Orbitrap Fusion MS method, the pharmacokinetics of JHG in rats were studied to investigate the dynamic changes of the active components in rats. The pharmacokinetic parameters of each component in each dosing group were calculated by […] model analysis using Kinetica 5.1 (Innaphase, Waltham, MA, USA) pharmacokinetic analysis software. The pharmacotemporal curves were plotted by the plotting software. SPSS 19.0 (IBM, Armonk, NY, USA) was used to analyze all the parameters. Independent sample tests were performed after natural logarithmic transformation for AUC0–t, Cmax. The nonparametric Mann–Whitney test was applied for Tmax, t½, and MRT0–t. p < 0.05 was considered statistically significant.

[3] = Sprague-Dawley, after administration of JHGs, read-out: Tmax of all dosages
[4] = Sprague Dawley, 5.7 g/kg/day, JHGs low dose 5.70 g/kg/d
[5] = Sprague Dawley, 5.7 g/kg/day, JHGs low dose 5.70 g/kg/d, read-out: Tmax
[6] = Sprague Dawley, 5.7 g/kg/day, low dose 5.70 g/kg/d, n=6 (1st of 3 stacked values)
[7] = Sprague Dawley, 11.41 g/kg/day, JHGs medium dose 11.41 g/kg/d
[8] = Sprague Dawley, 11.41 g/kg/day, JHGs medium dose 11.41 g/kg/d, read-out: Tmax
[9] = Sprague Dawley, 11.41 g/kg/day, medium dose 11.41 g/kg/d, n=6 (2nd of 3 stacked values)
[10] = Sprague Dawley, 22.81 g/kg/day, JHGs high dose 22.81 g/kg/d
[11] = Sprague Dawley, 22.81 g/kg/day, JHGs high dose 22.81 g/kg/d, read-out: Tmax
[12] = Sprague Dawley, 22.81 g/kg/day, high dose 22.81 g/kg/d, n=6 (3rd of 3 stacked values)

- Tmax, PF model group compared with the control group ([1]; PF model vs control rats): decreased significantly
SMILES: COc1ccc([C@@H]2CC(=O)c3c(O)cc(O[C@@H]4O[C@H](CO[C@@H]5O[C@@H](C)[C@H](O)[C@@H](O)[C@H]5O)[C@@H](O)[C@H](O)[C@H]4O)cc3O2)cc1O [Hesperidin]

- pharmacokinetic process (Cmax and AUCs versus dosage) [2]: linear pharmacokinetic process
- Tmax [2, 3]: ≤ 2 h
- Tmax ([1]; male, Sprague-Dawley, rat, plasma, po, PF model rats, after administration of JHGs, read-out: Tmax of all dosages): ≤ 2 h
SMILES: COc1ccc(-c2oc3c(CC=C(C)C)c(O[C@@H]4O[C@H](CO)[C@@H](O)[C@H](O)[C@H]4O)cc(O)c3c(=O)c2O[C@@H]2O[C@@H](C)[C@H](O)[C@@H](O)[C@H]2O)cc1 [Icariin]

- Clearances ([2]; JHGs high dose 22.81 g/kg/d): 18.7 ± 3.83 mL/min/kg
- Vss ([2]; JHGs high dose 22.81 g/kg/d): 9.42 ± 1.03 L
- Clearances ([2]; JHGs low dose 5.70 g/kg/d): 15.2 ± 3 mL/min/kg
- Vss ([2]; JHGs low dose 5.70 g/kg/d): 8.97 ± 2.22 L
- Clearances ([2]; JHGs medium dose 11.41 g/kg/d): 15.7 ± 1.7 mL/min/kg
- Vss ([2]; JHGs medium dose 11.41 g/kg/d): 9.67 ± 3.39 L
- pharmacokinetic process (Cmax and AUCs versus dosage) [2]: linear pharmacokinetic process
- AUC(0-inf) [2, 4]: 35.8 ± 5.5 ng·h/mL
- AUC(0-t) [2, 4]: 32.2 ± 4.75 ng·h/mL
- half-life [2, 4]: 6.86 ± 0.48 h
- MRT last [2, 4]: 7.15 ± 0.14 h
- MRT inf [2, 4]: 9.81 ± 0.84 h
- Tmax [2, 5]: 1 h
- Cmax [2, 6]: 5.67 ± 1 ng/mL
- AUC(0-inf) [2, 7]: 61.5 ± 8.17 ng·h/mL
- AUC(0-t) [2, 7]: 54.9 ± 7.53 ng·h/mL
- half-life [2, 7]: 8.24 ± 4.54 h
- MRT last [2, 7]: 7.03 ± 0.29 h
- MRT inf [2, 7]: 10.4 ± 4.06 h
- Tmax [2, 8]: 2 h
- Cmax [2, 9]: 9.31 ± 1.05 ng/mL
- AUC(0-inf) [2, 10]: 104 ± 22.4 ng·h/mL
- AUC(0-t) [2, 10]: 96.4 ± 18.1 ng·h/mL
- half-life [2, 10]: 6.1 ± 0.77 h
- MRT last [2, 10]: 6.64 ± 0.33 h
- MRT inf [2, 10]: 8.58 ± 0.98 h
- Tmax [2, 11]: 3 h
- Cmax [2, 12]: 18.4 ± 1.98 ng/mL
- pharmacokinetic process (versus dosage) ([1]; PF model rats): linear pharmacokinetic process
- Tmax, PF model group compared with the control group ([1]; PF model vs control rats): increased about three times
SMILES: C[C@@H]1O[C@@H](O[C@@H]2[C@@H](O)[C@H](OCCc3ccc(O)c(O)c3)O[C@H](COC(=O)/C=C/c3ccc(O)c(O)c3)[C@H]2O)[C@H](O)[C@H](O)[C@H]1O [Isoacteoside]

Further lines, the compound ahead of its results:

SMILES: OC[C@H]1O[C@@H](O[C@@H]2OC=C[C@H]3[C@H](O)[C@@H]4O[C@]4(CO)[C@@H]23)[C@H](O)[C@@H](O)[C@@H]1O [Catalpol]
- Cmax, PF model group compared with the control group ([1]; PF model vs control rats): significantly decreased

SMILES: CC(C)=CCC[C@](C)(O[C@@H]1O[C@H](CO[C@@H]2O[C@H](CO)[C@@H](O)[C@H](O)[C@H]2O)[C@@H](O)[C@H](O)[C@H]1O)[C@H]1CC[C@]2(C)[C@@H]1[C@H](O)C[C@@H]1[C@@]3(C)CC[C@H](O[C@@H]4O[C@H](CO)[C@@H](O)[C@H](O)[C@H]4O[C@@H]4O[C@H](CO)[C@@H](O)[C@H](O)[C@H]4O)C(C)(C)[C@@H]3CC[C@]12C [Ginsenoside Rb1]
- pharmacokinetic process (Cmax and AUCs versus dosage) [2]: linear pharmacokinetic process
- pharmacokinetic process (versus dosage) ([1]; PF model rats): linear pharmacokinetic process
- Cmax, PF model group compared with the control group ([1]; PF model vs control rats): significantly decreased
- AUCs, PF model group compared with the control group ([1]; PF model vs control rats, p < 0.05): significantly decreased

SMILES: CC(C)=CCC[C@](C)(O[C@@H]1O[C@H](CO[C@@H]2O[C@@H](CO)[C@H](O)[C@H]2O)[C@@H](O)[C@H](O)[C@H]1O)[C@H]1CC[C@]2(C)[C@@H]1[C@H](O)C[C@@H]1[C@@]3(C)CC[C@H](O[C@@H]4O[C@H](CO)[C@@H](O)[C@H](O)[C@H]4O[C@@H]4O[C@H](CO)[C@@H](O)[C@H](O)[C@H]4O)C(C)(C)[C@@H]3CC[C@]12C [Ginsenoside Rc]
- pharmacokinetic process (Cmax and AUCs versus dosage) [2]: linear pharmacokinetic process
- Tmax [2, 3]: ≤ 2 h
- shape of plasma concentration–time curve ([1]; PF model group, medium- and high-dose groups, compared to control group): double peaks phenomenon

SMILES: CC1CCC2N(C1)CC1C3CC4C(CC(O)C5CC(O)CCC54C)C3CCC1C2(C)O (centres unmarked) [Peimine]
- Clearances ([2]; JHGs high dose 22.81 g/kg/d): 88.7 ± 12.2 mL/min/kg
- Vss ([2]; JHGs high dose 22.81 g/kg/d): 60.06 ± 7.12 L
- Clearances ([2]; JHGs low dose 5.70 g/kg/d): 31 ± 7.83 mL/min/kg
- Vss ([2]; JHGs low dose 5.70 g/kg/d): 131.39 ± 53.45 L
- Clearances ([2]; JHGs medium dose 11.41 g/kg/d): 75.5 ± 9.5 mL/min/kg
- Vss ([2]; JHGs medium dose 11.41 g/kg/d): 61.2 ± 9.95 L
- pharmacokinetic process (Cmax and AUCs versus dosage) [2]: linear pharmacokinetic process
- AUC(0-inf) [2, 4]: 24.7 ± 5.52 ng·h/mL
- AUC(0-t) [2, 4]: 7.38 ± 2.13 ng·h/mL
- half-life [2, 4]: 52.1 ± 30.7 h
- MRT last [2, 4]: 11.1 ± 0.12 h
- MRT inf [2, 4]: 75.3 ± 41.8 h
- Tmax [2, 5]: 4 h
- Cmax [2, 6]: 0.57 ± 0.22 ng/mL
- AUC(0-inf) [2, 7]: 17.6 ± 2.24 ng·h/mL
- AUC(0-t) [2, 7]: 14.6 ± 1.9 ng·h/mL
- half-life [2, 7]: 8.02 ± 0.39 h
- MRT last [2, 7]: 8.8 ± 0.32 h
- MRT inf [2, 7]: 13.5 ± 0.58 h
- Tmax [2, 8]: 3.33 ± 0.58 h
- Cmax [2, 9]: 1.49 ± 0.26 ng/mL
- AUC(0-inf) [2, 10]: 29.9 ± 4.92 ng·h/mL
- AUC(0-t) [2, 10]: 26.6 ± 4.11 ng·h/mL
- half-life [2, 10]: 7.23 ± 0.62 h
- MRT last [2, 10]: 8.43 ± 0.11 h
- MRT inf [2, 10]: 11.3 ± 0.63 h
- Tmax [2, 11]: 2.67 ± 0.58 h
- Cmax [2, 12]: 2.53 ± 0.56 ng/mL
- MRT(0–t), PF model group compared with the control group ([1]; PF model vs control rats): decreased
